Reference: ChEMBL document CHEMBL1157823, “Cyclopeptide Smac mimetics as antagonists of IAP proteins” (Bioorg Med Chem Lett, 2010)

Experiments:
[1] = biological target: Baculoviral IAP repeat-containing protein 2 (Homo sapiens, UniProt Q13490); assay: Binding affinity to cIAP1 BIR3 domain by fluorescence polarization assay
SK-OV-3 = assay: Cytotoxicity against human SKOV3 cells after 4 days by WST-8 assay; details: SK-OV-3, 96 h
[2] = biological target: T1, E3 ubiquitin-protein ligase XIAP (Homo sapiens, UniProt P98170); assay: Antagonist activity at XIAP BIR3 domain assessed as restoration of caspase 9 activity by caspase-Glo 9 assay; assay type: functional
MDA-MB-231 = assay: Cytotoxicity against human MDA-MB-231 cells after 4 days by WST-8 assay; details: MDA-MB-231, 96 h
[3] = biological target: T1, E3 ubiquitin-protein ligase XIAP; assay: Binding affinity to XIAP linker BIR2-BIR3 domain site 1 by fluorescence polarization assay
[4] = biological target: T1, E3 ubiquitin-protein ligase XIAP; assay: Binding affinity to XIAP linker BIR2-BIR3 domain site 2 by fluorescence polarization assay

T1 sequence (P98170 whole entry, the tested form may be a part): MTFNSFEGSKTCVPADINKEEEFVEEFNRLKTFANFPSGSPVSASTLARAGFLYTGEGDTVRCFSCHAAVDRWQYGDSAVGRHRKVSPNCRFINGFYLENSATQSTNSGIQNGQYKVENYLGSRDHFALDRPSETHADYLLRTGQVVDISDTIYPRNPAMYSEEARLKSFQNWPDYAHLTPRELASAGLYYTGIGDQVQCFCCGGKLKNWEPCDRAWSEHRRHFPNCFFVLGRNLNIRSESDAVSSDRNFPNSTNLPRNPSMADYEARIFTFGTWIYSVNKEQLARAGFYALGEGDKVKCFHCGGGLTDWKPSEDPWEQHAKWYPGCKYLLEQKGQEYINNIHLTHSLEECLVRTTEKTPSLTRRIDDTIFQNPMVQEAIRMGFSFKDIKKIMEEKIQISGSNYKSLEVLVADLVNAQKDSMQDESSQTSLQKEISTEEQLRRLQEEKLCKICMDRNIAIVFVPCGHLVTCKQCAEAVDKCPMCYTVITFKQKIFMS
Baculoviral IAP repeat-containing protein 2, sequence (Q13490 whole entry, the tested form may be a part): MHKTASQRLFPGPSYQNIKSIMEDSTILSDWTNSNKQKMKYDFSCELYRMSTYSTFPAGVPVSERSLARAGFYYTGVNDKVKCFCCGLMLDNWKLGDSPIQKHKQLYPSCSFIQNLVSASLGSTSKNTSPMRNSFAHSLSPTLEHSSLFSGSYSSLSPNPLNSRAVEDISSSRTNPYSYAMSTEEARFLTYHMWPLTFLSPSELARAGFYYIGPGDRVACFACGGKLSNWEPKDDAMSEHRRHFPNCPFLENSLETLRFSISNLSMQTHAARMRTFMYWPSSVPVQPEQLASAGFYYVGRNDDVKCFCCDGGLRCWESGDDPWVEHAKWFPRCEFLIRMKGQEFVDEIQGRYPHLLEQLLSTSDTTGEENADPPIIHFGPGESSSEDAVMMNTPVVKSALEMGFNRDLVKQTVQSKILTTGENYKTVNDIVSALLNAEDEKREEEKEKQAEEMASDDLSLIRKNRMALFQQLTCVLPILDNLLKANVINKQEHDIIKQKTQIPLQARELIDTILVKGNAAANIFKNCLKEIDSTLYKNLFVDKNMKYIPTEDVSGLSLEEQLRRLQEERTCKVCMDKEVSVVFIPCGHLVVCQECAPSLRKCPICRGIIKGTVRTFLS

Row | IC50 [3] | IC50 [4] | SMILES | Ki [1] | IC50 (SK-OV-3) | Activity [2] | IC50 (MDA-MB-231)
1 | – | – | CN[C@@H](C)C(=O)N[C@H]1CCCCn2cc(nn2)[C@H](Cc2ccccc2)NC(=O)[C@@H]2CCCN2C(=O)[C@@H](NC(=O)[C@H](C)NC)CCCCn2cc(nn2)[C@H](Cc2ccccc2)NC(=O)[C@@H]2CCCN2C1=O | 161 nM | 31500 nM | Dose-dependent effect | 25900 nM
2 | – | – | CN[C@@H](C)C(=O)N[C@H]1CCCCn2cc(nn2)[C@H](c2ccccc2)NC(=O)[C@@H]2CCCN2C(=O)[C@@H](NC(=O)[C@H](C)NC)CCCCn2cc(nn2)[C@H](c2ccccc2)NC(=O)[C@@H]2CCCN2C1=O | – | – | Dose-dependent effect | –
3 | 1 nM | 481 nM | CN[C@@H](C)C(=O)N[C@H]1CCCNC(=O)[C@H](Cc2ccccc2)NC(=O)[C@@H]2CCCN2C(=O)[C@@H](NC(=O)[C@H](C)NC)CCCNC(=O)[C@H](Cc2ccccc2)NC(=O)[C@@H]2CCCN2C1=O | 84 nM | 15900 nM | Dose-dependent effect | 4600 nM
